Results on one molecule are retold here after article PMC8201324, “Pyrazoles and Pyrazolines as Anti-Inflammatory Agents” (Molecules, 2021).

This assay has as its system adjuvant-induced disease (AID). In words: Adjuvant-induced disease (AID). It counts as in vivo, Fisher 344 rats. Particulars: AID rats. How it is done: Adjuvant-induced disease (AID) is a good experimental model for rheumatoid arthritis, and is often used in testing agents for anti-inflammatory activity. The compound was administered intraperitoneally on the 1st day, i.e., the day of the administration of Freund’s adjuvant (FA), and once every other day for the following 24 days. Adjuvant arthritis was developed about 14 days post-FA administration. […] The effect of the tested compound on inflammation is shown in Table 7 and the time course of adjuvant arthritis development expressed as arthritic score is shown in Figure 2. In the same experimental model, Indomethacin (IMA) was used as a reference compound.
The animals (Fisher 344 rats), were housed under standard conditions, and received a diet of commercial food pellets and water ad libitum during the maintenance, but were entirely fasted during the experiment period. Both sexes were used, while pregnant females were excluded. Each group was composed of 6–15 animals. Our studies were in accordance with recognized guidelines on animal experimentation (guidelines for the care and use of laboratory animals published by the Greek Government 160/1991, based on EU regulations 86/609). Rats were kept in the Centre of the School of Veterinary Medicine (EL54 BIO42), Aristotle University of Thessaloniki, which is registered by the official state veterinary authorities (presidential degree 56/2013, in harmony with the European Directive 2010/63/EEC). The experimental protocols were approved by the Animal Ethics Committee of the Prefecture of Central Macedonia.
Rats were divided into four groups (five-membered groups of animals were used): groups one, two and three were injected intradermally with 0.1 mL Freund’s adjuvant (FA) into the base of the tails of the animals; group three was the FA control rats; group four was injected with saline, used as an absolute control. Compound 2d (group 1) and indomethacin (group 2) were injected i.p. once every other day for the following 24 days in a dose of 0.00057 mmol/mL/kg body weight (Table 7). Adjuvant arthritis was developed circa 14 days post-FA administration. Arthritic score was measured every 2 days from the commencement (14th day) day. Arthritic score was assessed on the 24th day. For quantification of arthritis (arthritic score); a single point was assigned for each wrist or ankle area and an additional point was given for each involved phalangeal joint, up to a maximum of five points per extremity.
On the 24th day and at least 12 h after the last injection, animals were administered zoxazolamine i.p. […], as an aqueous suspension with a few drops of Tween 80, and the duration of the paralysis were assessed (Table 7) (Figure 2). The experiment was conducted in duplicate.

Where [1] appears, read: 0.00057 mmol/mL/kg i.p. every other day for 24 days.

SMILES strings stand for the structures. Entries after “also recorded” stand apart in the source; their conditions may differ.

For the molecule `Brc1ccc(COc2ccc(C3CC(c4ccccc4)=NN3)cc2)cc1` (stereo not shown) [Compound 2d, 5-(4-((4-bromobenzyl)oxy)phenyl)-3-phenyl-4,5-dihydro-1H-pyrazole], under setting [1], the “Percent change in body weight (g ± SD)” value is on record as 6 ± 0.3 g and the “Percent change in liver weight (g ± SD)” value was 7 ± 0.6 g. Besides, under “24th day, zoxazolamine i.p.”, the “Zoxazolamine paralysis (minutes ± SD)” value was 227 ± 17 min. The “arthritis development / arthritic score” value (i.p. once every other day for 24 days, versus AID rat controls) is on record as “either did not develop or developed very mild arthritis; also recorded: significantly reduced”.
